SMILES strings stand for the structures.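 Exposure lasted 48 hours, with cells grown in 96-well plates and compounds tested at five concentrations. GI50 marks 50% less growth.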 Activity calls are given as the source filed them. No stated cut-off is given here; in the data, active = GI50 up to about 1.1 µM and inactive = higher.

Here are results for ten compounds from ChEMBL document CHEMBL1201862, “PubChem BioAssay data set” (2004).

Some test systems named below: 786-0; MCF7; M14; PC-3; HL-60; HCC 2998; U-251; SR; OVCAR-3; OVCAR-5; HT-29; T47D; Hs-578T; SK-MEL-5; HOP-92; TK-10; SK-OV-3; RXF 393; K562; UO-31.
Experiment in all cases: growth of human tumour cells (NCI), 48 h

For `Oc1[nH]c(Nc2ccc(Cl)cc2)nc2ncnc1-2`, the GI50 is > 100 µM (inactive) in the assay on 786-0; > 100 µM (inactive) in the assay with MCF7; 89.1 µM (inactive) with M14; > 100 µM (inactive) in the assay with PC-3; > 100 µM (inactive) in the assay with HL-60; 98.6 µM (inactive) with HCC 2998. The GI50 in the assay with U-251 was > 100 µM (inactive); in the assay on SR, 44.9 µM (inactive); with OVCAR-3 it was > 100 µM (inactive); in the assay on OVCAR-5, > 100 µM (inactive); in the assay with HT-29, 47.4 µM (inactive); in the assay on T47D, 61.7 µM (inactive). For the same compound, the GI50 with Hs-578T is 23.3 µM (inactive); in the assay with SK-MEL-5, > 100 µM (inactive); with HOP-92, 81.3 µM (inactive); with TK-10, > 100 µM (inactive); with SK-OV-3, > 100 µM (inactive).
As for `O=C1CCc2cc([N+](=O)[O-])ccc2O1`, the GI50 in the assay on 786-0, with MCF7, in the assay on M14, with PC-3, in the assay with HL-60 and in the assay with HCC 2998 was > 100 µM (inactive) throughout. The GI50 in the assay on U-251, with RXF 393, in the assay on SR, in the assay with OVCAR-3, in the assay on OVCAR-5 and in the assay on HT-29 was > 100 µM (inactive) throughout. In addition, the GI50 in the assay on T47D, with Hs-578T, with K562, with SK-MEL-5, in the assay with HOP-92 and in the assay with TK-10 was > 100 µM (inactive) each time.
Regarding `CCOC(=O)c1cc(C2(O)CCN(CC(C)CC)C2=O)c(-c2cc(C)no2)[nH]1` (stereo not given), the GI50 in the assay on 786-0, with MCF7, in the assay on M14, with PC-3, in the assay on HL-60 and with HCC 2998 was > 100 µM (inactive) each time. In addition, the GI50 in the assay with U-251, in the assay with RXF 393, with SR, in the assay with UO-31, in the assay on OVCAR-3 and in the assay on OVCAR-5 was > 100 µM (inactive) in each case. In addition, the GI50 in the assay on HT-29, in the assay on T47D, in the assay on Hs-578T, in the assay on K562, in the assay with SK-MEL-5 and with HOP-92 was > 100 µM (inactive) each time. Besides, in the assay on SK-OV-3, the GI50 was > 100 µM (inactive).
As to `CC(C)=CC[C@]12CCN(C)[C@H]1N(S(=O)(=O)c1ccccc1)c1ccccc12`, the GI50 is 42.3 µM (inactive) in the assay on 786-0; > 42.8 µM (inactive) in the assay on MCF7; > 54 µM (inactive) in the assay with PC-3; 28.4 µM (inactive) with HL-60; > 40.1 µM (inactive) in the assay on HCC 2998; 32.7 µM (inactive) in the assay with U-251. The GI50 in the assay with RXF 393 is > 38.3 µM (inactive); with SR it was 20.7 µM (inactive); in the assay on UO-31, > 22.5 µM (inactive); in the assay on OVCAR-3, > 41 µM (inactive); with OVCAR-5, > 59.8 µM (inactive); in the assay with HT-29, > 46.5 µM (inactive). Moreover, the GI50 is 9.73 µM (inactive) in the assay on T47D; > 45.4 µM (inactive) in the assay on Hs-578T; > 43.2 µM (inactive) in the assay with K562; 11.9 µM (inactive) in the assay with SK-MEL-5; 3.38 µM (inactive) with HOP-92; > 55.5 µM (inactive) with TK-10. Also, the GI50 in the assay on SK-OV-3 is 6.25 µM (inactive).
For `N#Cc1nc(C2CC2)oc1N`, the GI50 in the assay with 786-0, in the assay with MCF7, in the assay on M14, in the assay with PC-3, with HCC 2998 and in the assay with U-251 was > 100 µM (inactive) throughout. In addition, the GI50 with RXF 393, in the assay with SR, in the assay on OVCAR-3, in the assay with OVCAR-5, with HT-29 and in the assay on T47D was > 100 µM (inactive) in each case. The GI50 in the assay with Hs-578T, in the assay with K562, in the assay on HOP-92, in the assay with TK-10 and in the assay on SK-OV-3 was > 100 µM (inactive) throughout.
As to `COc1cccc2c3ccccc3c3nc[nH]c3c12`, the GI50 in the assay with 786-0 was 18.1 µM (inactive); in the assay with MCF7, 47.4 µM (inactive); in the assay with M14, 28.6 µM (inactive); in the assay on PC-3 it was 30.8 µM (inactive); in the assay on HCC 2998, 23.9 µM (inactive); with U-251, 14.7 µM (inactive). The GI50 was 17.5 µM (inactive) in the assay on RXF 393; 14.6 µM (inactive) with SR; 41.7 µM (inactive) in the assay with UO-31; > 100 µM (inactive) in the assay with OVCAR-3; 55.3 µM (inactive) with OVCAR-5; 31.6 µM (inactive) in the assay on HT-29. Moreover, the GI50 in the assay on T47D was > 50.4 µM (inactive); in the assay with Hs-578T, < 0.01 µM (active); with K562, 12.4 µM (inactive); in the assay with SK-MEL-5 it was 16.7 µM (inactive); in the assay with HOP-92, 27.3 µM (inactive); in the assay on TK-10 it was 26.1 µM (inactive). Further, in the assay on SK-OV-3, the GI50 was > 62.1 µM (inactive).
As for `O=[N+]([O-])c1ccc(C2ON=C(c3ccccc3)N2C23CC4CC(CC(C4)C2)C3)cc1` (stereo not given), the GI50 in the assay with 786-0, with MCF7, in the assay on M14, in the assay with PC-3, in the assay with HL-60 and with HCC 2998 was > 10 µM (inactive) throughout. In addition, the GI50 was 6.35 µM (inactive) in the assay with U-251; > 10 µM (inactive) in the assay on RXF 393; > 10 µM (inactive) in the assay with SR; > 10 µM (inactive) in the assay with OVCAR-3; > 10 µM (inactive) in the assay on OVCAR-5; > 10 µM (inactive) in the assay with HT-29. In addition, the GI50 in the assay on T47D was > 10 µM (inactive); with Hs-578T it was 6.75 µM (inactive); in the assay with K562, > 10 µM (inactive); with SK-MEL-5, > 10 µM (inactive); in the assay on HOP-92, > 10 µM (inactive); in the assay on TK-10, > 10 µM (inactive). For the same compound, the GI50 with SK-OV-3 was > 10 µM (inactive).
For the compound `CCOC(=O)c1c(N2CCCC2)ncn(C)c1=S`, the GI50 in the assay with 786-0, in the assay with MCF7, with M14, with PC-3, with HL-60 and in the assay on HCC 2998 was > 100 µM (inactive) throughout. In addition, the GI50 is > 100 µM (inactive) in the assay on U-251; > 100 µM (inactive) with RXF 393; > 100 µM (inactive) with SR; 41.6 µM (inactive) in the assay with UO-31; > 100 µM (inactive) in the assay with OVCAR-3; > 100 µM (inactive) with OVCAR-5. In addition, the GI50 in the assay on HT-29 was > 100 µM (inactive); with T47D, > 100 µM (inactive); in the assay with Hs-578T, > 100 µM (inactive); in the assay with K562 it was > 100 µM (inactive); with SK-MEL-5 it was > 100 µM (inactive); in the assay on HOP-92 it was 93.3 µM (inactive). Besides, the GI50 in the assay with TK-10 is > 100 µM (inactive).
For the compound `COC(=O)c1cc(=O)n(-c2ccc3nn(C)nc3c2)cc1C(=O)OC`, the GI50 with 786-0, in the assay with MCF7, with M14, with PC-3, in the assay on HCC 2998 and in the assay with U-251 was > 100 µM (inactive) each time. Further, the GI50 with RXF 393, with SR, in the assay on UO-31, in the assay on OVCAR-3, with OVCAR-5 and with HT-29 was > 100 µM (inactive) each time. Besides, the GI50 in the assay on T47D, with Hs-578T, in the assay with K562, in the assay on SK-MEL-5, with HOP-92 and in the assay with TK-10 was > 100 µM (inactive) in each case. For the same compound, in the assay with SK-OV-3, the GI50 was > 100 µM (inactive).
As to `Cc1ccc2cc3c(ccc4ccccc43)c3c2c1CC3` [3-METHYLCHOLANTHRENE], the GI50 in the assay with 786-0 is > 100 µM (inactive); in the assay with MCF7 it was 0.159 µM (active); in the assay with M14, > 100 µM (inactive); with PC-3, > 100 µM (inactive); in the assay with HL-60, > 100 µM (inactive); in the assay with HCC 2998 it was > 100 µM (inactive). The GI50 in the assay with U-251, in the assay with RXF 393, with SR, with UO-31, in the assay with OVCAR-3 and with HT-29 was > 100 µM (inactive) each time. For the same compound, the GI50 in the assay with T47D is > 100 µM (inactive); in the assay on Hs-578T, 83.9 µM (inactive); in the assay with K562, > 100 µM (inactive); in the assay on SK-MEL-5, > 100 µM (inactive); in the assay with HOP-92, > 100 µM (inactive); in the assay on TK-10, > 100 µM (inactive). In addition, the GI50 in the assay with SK-OV-3 was > 100 µM (inactive).
